According to patent publication US20120121707A1, “Tolbutamide Particle And Preparing Method Thereof And Method Of Reducing A Blood Glucose” (National Taiwan University, priority 2010, published 2012):

Legend:
[1] = Particle size distribution analysis of tolbutamide particles; assay type: physicochemical
Excerpt: (§1) In the embodiments 1 to 4, the usage amount of the bulk drug of tolbutamide is in a range of 2 to 5 gram, and the other operation conditions, e.g. the pressures and the temperature of mixing, the temperatures before and after the expansion and the particle sizes of the tolbutamide micro-particles, are listed in Table 1 below.
as §1, with “embodiments 5” for “embodiments 1”, “to 8,” for “to 4,”, “Table 2” for “Table 1”
FIG. 1A is the schematic diagram showing the distribution and the cumulative distribution of the particle sizes for the bulk drug of tolbutamide, wherein the average particle size is 89.4 micron. FIG. 1B is the schematic diagram showing the distribution and the cumulative distribution of the particle sizes for the tolbutamide micro-particles obtained by using the method of the rapid expansion of supercritical solution (RESS) in the fourth embodiment. FIG. 1C is the schematic diagram showing the distribution and the cumulative distribution of the particle sizes for the tolbutamide micro-particles obtained by using the method of RESS with solid cosolvent (RESS-SC) in the eighth embodiment. […]

[2] = cited from earlier work

average particle size ([1]; Table 1, RESS method, supercritical CO2, no cosolvent, bulk drug as comparison)	average particle size ([1]; text on FIGS. 1A-1D)	SMILES	solubility in ethanol and chloroform ([2]; ethanol and chloroform)	solubility in water ([2]; water)
89.4 μm	89.4 micron	CCCCNC(=O)NS(=O)(=O)c1ccc(C)cc1 [Bulk drug of tolbutamide, tolbutamide]		
		CCCCNC(=O)NS(=O)(=O)c1ccc(C)cc1 [tolbutamide]	soluble in ethanol and chloroform	almost insoluble in the water
